Laboratory results reported in US10533010B2, “Substituted indole Mcl-1 inhibitors” (Vanderbilt University, priority 2014, dated 2020).
Read-outs that look alike come from different tables or passages of the source.

Molecular target: recombinant Mcl-1 (residues 172-327) (Homo sapiens (Human), UniProt Q07820)
Assay: Fluorescence polarization anisotropy competition assay (FITC-Bak or FITC-Bim BH3 peptide) with Mcl-1
Format: binding
[1] = Table 2, Ki bins given in nM, FITC-Bak or FITC-Bim peptide competition, Ki converted from IC50, read-out: Ki for Inhibition of Mcl-1

Chain of recombinant Mcl-1 (residues 172-327) (Q07820 172-327): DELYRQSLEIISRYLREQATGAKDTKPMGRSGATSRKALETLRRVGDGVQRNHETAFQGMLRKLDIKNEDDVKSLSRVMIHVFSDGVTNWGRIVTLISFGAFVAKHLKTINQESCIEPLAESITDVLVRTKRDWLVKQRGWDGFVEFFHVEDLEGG

SMILES	Ki [1] [nM]	other results
Cc1cc(OCCCc2c3n(c4c(-c5c(C)nn(C)c5C)c(Cl)ccc24)CCCN(c2ccc(C(=O)O)c(F)c2)C3=O)cc(C)c1Cl [I-94, 4-(8-chloro-11-(3-(4-chloro-3,5-dimethylphenoxy)propyl)-1-oxo-7-(1,3,5-trimethyl-1H-pyrazol-4-yl)-4,5-dihydro-1H-[1,4]diazepino[1,2-a]indol-2(3H)-yl)-2-fluorobenzoic acid]	< 50	
Cc1cc(OCCCc2c3n(c4c(-c5c(C)nn(C)c5C)c(Cl)ccc24)CCCN(c2ccnc4c(C(=O)O)cccc24)C3=O)cc(C)c1Cl [I-104, 4-(8-chloro-11-(3-(4-chloro-3,5-dimethylphenoxy)propyl)-1-oxo-7-(1,3,5-trimethyl-1H-pyrazol-4-yl)-4,5-dihydro-1H-[1,4]diazepino[1,2-a]indol-2(3H)-yl)quinoline-8-carboxylic acid]	< 50	
Cc1cc(OCCCc2c3n(c4c(-c5c(C)nn(C)c5C)c(Cl)ccc24)C[C@H](C)N(Cc2ccc(C(=O)O)cc2)C3=O)cc(C)c1Cl [I-139, (S)-4-((7-chloro-10-(3-(4-chloro-3,5-dimethylphenoxy)propyl)-3-methyl-1-oxo-6-(1,3,5-trimethyl-1H-pyrazol-4-yl)-3,4-dihydropyrazino[1,2-a]indol-2(1H)-yl)methyl)benzoic acid]	< 50	
Cc1cc(OCCCc2c(C(=O)NCCC(=O)NS(=O)(=O)c3ccc([N+](=O)[O-])cc3)[nH]c3c(-c4c(C)n[nH]c4C)cccc23)cc(C)c1Cl [I-24, 3-(3-(4-chloro-3,5-dimethylphenoxy)propyl)-7-(3,5-dimethyl-1H-pyrazol-4-yl)-N-(3-((4-nitrophenyl)sulfonamido)-3-oxopropyl)-1H-indole-2-carboxamide]	101 to 299	
Cc1cc(OCCCc2c3n(c4c(-c5c(C)nn(C)c5C)c(Cl)ccc24)CCCNC3=O)cc(C)c1Cl [I-118, 8-chloro-11-(3-(4-chloro-3,5-dimethylphenoxy)propyl)-7-(1,3,5-trimethyl-1H-pyrazol-4-yl)-2,3,4,5-tetrahydro-1H-[1,4]diazepino[1,2-a]indol-1-one]	< 50	
Cc1cc(OCCCc2c3n(c4c(-c5c(C)nn(C)c5C)cccc24)CCCN(Cc2ccc(N4CCCCC4)c(C(=O)O)c2)C3=O)cc(C)c1Cl [I-81, 5-((11-(3-(4-chloro-3,5-dimethylphenoxy)propyl)-1-oxo-7-(1,3,5-trimethyl-1H-pyrazol-4-yl)-4,5-dihydro-1H-[1,4]diazepino[1,2-a]indol-2(3H)-yl)methyl)-2-(piperidin-1-yl)benzoic acid]	51 to 100	
Cc1cc(OCCCc2c3n(c4c(-c5c(C)nn(C)c5C)c(Cl)ccc24)CCCN(c2cc(C(=O)O)c4ccn(CCN(C)C)c4c2)C3=O)cc(C)c1Cl [I-243, 6-(8-chloro-11-(3-(4-chloro-3,5-dimethylphenoxy)propyl)-1-oxo-7-(1,3,5-trimethyl-1H-pyrazol-4-yl)-4,5-dihydro-1H-[1,4]diazepino[1,2-a]indol-2(3H)-yl)-1-(2-(dimethylamino)ethyl)-1H-indole-4-carboxylic acid]	< 50	
Cc1cc(OCCCc2c3n(c4c(-c5c(C)nn(C)c5C)c(Cl)ccc24)C(C)CN(Cc2ccc(C(=O)O)cn2)C3=O)cc(C)c1Cl (stereo not shown) [I-129, 6-((7-chloro-10-(3-(4-chloro-3,5-dimethylphenoxy)propyl)-4-methyl-1-oxo-6-(1,3,5-trimethyl-1H-pyrazol-4-yl)-3,4-dihydropyrazino[1,2-a]indol-2(1H)-yl)methyl)nicotinic acid]	< 50	
Cc1cc(OCCCc2c(C(=O)NCCC(=O)NS(=O)(=O)C3CC3)[nH]c3ccccc23)cc(C)c1Cl [I-13, 3-(3-(4-chloro-3,5-dimethylphenoxy)propyl)-N-(3-(cyclopropanesulfonamido)-3-oxopropyl)-1H-indole-2-carboxamide]	301 to 500	
Cc1cc(OCCCc2c3n(c4c(-c5c(C)nn(C)c5C)c(Cl)ccc24)CCN(Cc2ccc(C(=O)O)o2)C3=O)cc(C)c1Cl [I-143, 5-((7-chloro-10-(3-(4-chloro-3,5-dimethylphenoxy)propyl)-1-oxo-6-(1,3,5-trimethyl-1H-pyrazol-4-yl)-3,4-dihydropyrazino[1,2-a]indol-2(1H)-yl)methyl)furan-2-carboxylic acid]	< 50	
Cc1cc(OCCCc2c3n(c4c(-c5c(C)nn(C)c5C)c(Cl)ccc24)C(C)[C@@H](C)N(Cc2ccc(C(=O)O)cc2)C3=O)cc(C)c1Cl (stereo partly drawn) [I-144, 4-(((3R)-7-chloro-10-(3-(4-chloro-3,5-dimethylphenoxy)propyl)-3,4-dimethyl-1-oxo-6-(1,3,5-trimethyl-1H-pyrazol-4-yl)-3,4-dihydropyrazino[1,2-a]indol-2(1H)-yl)methyl)benzoic acid]	< 50	
Cc1cc(N2CCCn3c(c(CCCOc4cc(C)c(Cl)c(C)c4)c4ccc(Cl)c(-c5c(C)nn(C)c5C)c43)C2=O)ccc1C(=O)O [I-99, 4-(8-chloro-11-(3-(4-chloro-3,5-dimethylphenoxy)propyl)-1-oxo-7-(1,3,5-trimethyl-1H-pyrazol-4-yl)-4,5-dihydro-1H-[1,4]diazepino[1,2-a]indol-2(3H)-yl)-2-methylbenzoic acid]	< 50	
Cc1cc(OCCCc2c(C(=O)NCc3ccc(C(=O)NS(C)(=O)=O)o3)[nH]c3ccccc23)cc(C)c1Cl [I-59, 3-(3-(4-chloro-3,5-dimethylphenoxy)propyl)-N-((5-((methylsulfonyl)carbamoyl)furan-2-yl)methyl)-1H-indole-2-carboxamide]	101 to 299	
Cc1cc(OCCCc2c(C(=O)N[C@H]3CC[C@@H](C(=O)O)CC3)[nH]c3c(-c4c(C)nn(C)c4C)c(Cl)ccc23)cc(C)c1Cl [I-332, (1s,4s)-4-(6-chloro-3-(3-(4-chloro-3,5-dimethylphenoxy)propyl)-7-(1,3,5-trimethyl-1H-pyrazol-4-yl)-1H-indole-2-carboxamido)cyclohexane-1-carboxylic acid]	< 50	
Cc1cc(OCCCc2c3n(c4c(-c5c(C)nn(C)c5C)c(Cl)ccc24)CCC(C)NC3=O)cc(C)c1Cl (stereo not shown) [I-114, 8-chloro-1-(3-(4-chloro-3,5-dimethylphenoxy)propyl)-3-methyl-7-(1,3,5-trimethyl-1H-pyrazol-4-yl)-2,3,4,5-tetrahydro-1H-[1,4]diazepino[1,2-a]indol-1-one]	< 50	
Cc1cc(OCCCc2c3n(c4c(-c5c(C)nn(C)c5C)c(Cl)ccc24)CCCN(c2ccc(C(=O)NS(=O)(=O)C4CC4)cc2)C3=O)cc(C)c1Cl [I-361, 4-(8-chloro-11-(3-(4-chloro-3,5-dimethylphenoxy)propyl)-1-oxo-7-(1,3,5-trimethyl-1H-pyrazol-4-yl)-4,5-dihydro-H-[1,4]diazepino[1,2-a]indol-2(3H)-yl)-N-(cyclopropylsulfonyl)benzamide]	< 50	
Cc1cc(OCCCc2c(C(=O)Nc3ccc(C#N)cc3)[nH]c3c(-c4c(C)nn(C)c4C)c(Cl)ccc23)cc(C)c1Cl [I-355, 6-chloro-3-(3-(4-chloro-3,5-dimethylphenoxy)propyl)-N-(4-cyanophenyl)-7-(1,3,5-trimethyl-1H-pyrazol-4-yl)-1H-indole-2-carboxamide]	51 to 100	
Cc1cc(OCCCc2c3n(c4c(-c5c(C)nn(C)c5C)c(Cl)ccc24)C[C@H](C)N(Cc2cccc(C(=O)O)c2)C3=O)cc(C)c1Cl [I-136, (S)-3-((7-chloro-10-(3-(4-chloro-3,5-dimethylphenoxy)propyl)-3-methyl-1-oxo-6-(1,3,5-trimethyl-1H-pyrazol-4-yl)-3,4-dihydropyrazino[1,2-a]indol-2(1H)-yl)methyl)benzoic acid]	< 50	
Cc1cc(OCCCc2c(C(=O)Nc3cncc(C(=O)O)c3)[nH]c3c(-c4c(C)nn(C)c4C)cccc23)cc(C)c1Cl [I-186, 5-(3-(3-(4-chloro-3,5-dimethylphenoxy)propyl)-7-(1,3,5-trimethyl-1H-pyrazol-4-yl)-1H-indole-2-carboxamido)nicotinic acid]	< 50	
Cc1cc(OCCCc2c(C(=O)Nc3ccc(C(=O)NS(=O)(=O)c4ccc([N+](=O)[O-])cc4)cc3)[nH]c3c(-c4cccnc4C)cccc23)cc(C)c1Cl [I-69, 3-(3-(4-chloro-3,5-dimethylphenoxy)propyl)-7-(2-methylpyridin-3-yl)-N-(4-(((4-nitrophenyl)sulfonyl)carbamoyl)phenyl)-1H-indole-2-carboxamide]	101 to 299	
Cc1cc(OCCCc2c3n(c4c(-c5c(C)nn(C)c5C)cccc24)CCCN(Cc2ccc(N4CCCC4)c(C(=O)O)c2)C3=O)cc(C)c1Cl [I-78, 5-((11-(3-(4-chloro-3,5-dimethylphenoxy)propyl)-1-oxo-7-(1,3,5-trimethyl-1H-pyrazol-4-yl)-4,5-dihydro-1H-[1,4]diazepino[1,2-a]indol-2(3H)-yl)methyl)-2-(pyrrolidin-1-yl)benzoic acid]	101 to 299	
Cc1cc(OCCCc2c(C(=O)NCc3cc(C(=O)O)cc(N4CCc5ccccc5C4)n3)[nH]c3c(-c4c(C)nn(C)c4C)c(Cl)ccc23)cc(C)c1Cl [I-282, 2-((6-chloro-3-(3-(4-chloro-3,5-dimethylphenoxy)propyl)-7-(1,3,5-trimethyl-1H-pyrazol-4-yl)-1H-indole-2-carboxamido)methyl)-6-(3,4-dihydroisoquinolin-2(1H)-yl)isonicotinic acid]	< 50	
Cc1cc(OCCCc2c(C(=O)N(Cc3ccc(C(F)(F)F)cc3)c3ccc(S(N)(=O)=O)cn3)[nH]c3ccccc23)cc(C)c1Cl [I-49, 3-(3-(4-chloro-3,5-dimethylphenoxy)propyl)-N-(5-sulfamoylpyridin-2-yl)-N-(4-(trifluoromethyl)benzyl)-1H-indole-2-carboxamide]	101 to 299	
COC(=O)[C@H](Cc1ccccc1)NC(=O)CNC(=O)c1[nH]c2c(-c3c(C)nn(C)c3C)cccc2c1CCCOc1cc(C)c(Cl)c(C)c1 [I-288, methyl (3-(3-(4-chloro-3,5-dimethylphenoxy)propyl)-7-(1,3,5-trimethyl-1H-pyrazol-4-yl)-1H-indole-2-carbonyl)glycyl-L-phenylalaninate]		Ki (Table 2, Ki bins given in μM, FITC-Bak or FITC-Bim peptide competition, Ki converted from IC50, read-out: Ki for Inhibition of Mcl-1): 1000 to 9990 nM
COC(=O)CNC(=O)c1[nH]c2ccccc2c1CCCOc1cc(C)c(Cl)c(C)c1 [I-2, methyl (3-(3-(4-chloro-3,5-dimethylphenoxy)propyl)-1H-indole-2-carbonyl)glycinate]		Ki: 1000 to 9990 nM
